Our source for the T/C values is PubChem BioAssay AID328 (DTP/NCI, 2004).

The test system of this experiment is BDF1 mice, P388 leukemia ip, median survival T/C. The experiment is described as follows: NCI In Vivo Anticancer Drug Screen. Data for tumor model P388 Leukemia (intraperitoneal) in B6D2F1 (BDF1) mice. The settings on record: endpoint: median survival time, higher = longer survival. The essentials: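 Transplantable tumour in mice; compound vs vehicle dosing; survival scored; ratio of treated to control reported.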

The mark [1] stands for this setting: dose: 50.0 mg/kg/injection, schedule: Q01DX009 (ip), vehicle: saline with Tween-80.
Where [2] appears, read: dose: 100.0 mg/kg/injection, schedule: Q01DX009 (ip), vehicle: saline with Tween-80.
[3] abbreviates: dose: 50.0 mg/kg/injection, schedule: Q01DX001 (ip), vehicle: saline.
[4] abbreviates: dose: 6.25 mg/kg/injection, schedule: Q01DX009 (ip), vehicle: saline.
Setting [5] is: dose: 12.5 mg/kg/injection, schedule: Q04DX003 (ip), vehicle: saline.
Where [6] appears, read: dose: 25.0 mg/kg/injection, schedule: Q04DX003 (ip), vehicle: saline.
The mark [7] stands for this setting: dose: 50.0 mg/kg/injection, schedule: Q04DX003 (ip), vehicle: saline.
Setting [8] is: dose: 100.0 mg/kg/injection, schedule: Q04DX003 (ip), vehicle: saline.
[9] abbreviates: dose: 100.0 mg/kg/injection, schedule: Q04DX003 (ip), vehicle: saline with Tween-80.
The mark [10] stands for this setting: dose: 100.0 mg/kg/injection, schedule: Q01DX009 (ip), vehicle: Klucel (hydroxypropylcellulose) (HPC).
The mark [11] stands for this setting: dose: 200.0 mg/kg/injection, schedule: Q01DX009 (ip), vehicle: Klucel (hydroxypropylcellulose) (HPC).
The mark [12] stands for this setting: dose: 400.0 mg/kg/injection, schedule: Q01DX009 (ip), vehicle: Klucel (hydroxypropylcellulose) (HPC).
Setting [13] is: dose: 100.0 mg/kg/injection, schedule: Q01DX009 (ip), vehicle: saline.

“And” between values parts separate entries of the source, which are not always exact repeats. Identical values can stand only once. Toxic doses and inconclusive results are not listed.

As to `[F][Fe]([F])([F])([F])([F])[F]`, the T/C by setting is: under setting [1], 95 % of control; under setting [2], 101 % of control.

For `CCOC(=O)C(=O)C[n+]1cc2ccccc2cc1/C=N/O`, the T/C was 100 % of control under setting [3]; 100 % of control (dose: 100.0 mg/kg/injection, schedule: Q01DX001 (ip), vehicle: saline); 100 % of control (dose: 200.0 mg/kg/injection, schedule: Q01DX001 (ip), vehicle: saline).

In the case of `Cc1c2cc3c(cc2cc2c4cc5c(cc4cc[n+]12)OCO5)OCO3` (tested in a mixture with another compound), the T/C is, setting by setting: (dose: 3.0 mg/kg/injection, schedule: Q04DX003 (ip), vehicle: saline) 159 % of control; (dose: 3.13 mg/kg/injection, schedule: Q01DX009 (ip), vehicle: saline) 98 % of control; (dose: 5.56 mg/kg/injection, schedule: Q04DX003 (ip), vehicle: saline) 150 % of control and 177 % of control; under setting [4], 89 % of control; (dose: 6.25 mg/kg/injection, schedule: Q04DX003 (ip), vehicle: saline) 170 % of control; (dose: 8.33 mg/kg/injection, schedule: Q04DX003 (ip), vehicle: saline) 172 % of control and 200 % of control. The T/C by setting is: under setting [5], 150 % of control and 177 % of control and 190 % of control; (dose: 18.7 mg/kg/injection, schedule: Q04DX003 (ip), vehicle: saline) 113 % of control; under setting [6], 95 % of control.

In the case of `CN(C)c1ccc(/C=C/c2ccnc3c(-c4ccccc4)cccc23)cc1`, the T/C was 89 % of control under setting [1] and 91 % of control under setting [2].

`c1ccc(-c2ncc3cnccn23)cc1`: the T/C is 100 % of control (dose: 3.12 mg/kg/injection, schedule: Q01DX009 (ip), vehicle: saline); 100 % of control under setting [4]; 100 % of control (dose: 12.5 mg/kg/injection, schedule: Q01DX009 (ip), vehicle: saline); 114 % of control under setting [5]; 116 % of control under setting [6]; 88 % of control (dose: 50.0 mg/kg/injection, schedule: Q01DX009 (ip), vehicle: saline). The T/C is 105 % of control under setting [7] and 107 % of control under setting [8].

`Cc1nc2nc(N)[nH]c(=O)c2[nH]1`: the T/C reads like this: (dose: 25.0 mg/kg/injection, schedule: Q01DX009 (ip), vehicle: saline with Tween-80) 112 % of control; under setting [1], 124 % of control; under setting [2], 104 % of control; under setting [9], 109 % of control.

Consider `COc1ccccc1OCC(C)=O`, for which the T/C (dose: 178.0 mg/kg/injection, schedule: Q04DX003 (ip), vehicle: saline with Tween-80) is 104 % of control; the T/C (dose: 266.0 mg/kg/injection, schedule: Q04DX003 (ip), vehicle: saline with Tween-80) was 104 % of control; the T/C (dose: 400.0 mg/kg/injection, schedule: Q04DX003 (ip), vehicle: saline with Tween-80) was 114 % of control; the T/C (dose: 600.0 mg/kg/injection, schedule: Q04DX003 (ip), vehicle: saline with Tween-80) was 104 % of control.

In the case of `Cc1ccc(SC2CC3CC2C2COCC32)cc1` (stereo not given), the T/C reads like this: (dose: 25.0 mg/kg/injection, schedule: Q01DX009 (ip), vehicle: Klucel (hydroxypropylcellulose) (HPC)) 86 % of control; (dose: 50.0 mg/kg/injection, schedule: Q01DX009 (ip), vehicle: Klucel (hydroxypropylcellulose) (HPC)) 95 % of control; under setting [10], 104 % of control.

Consider `CCOc1ccccc1NC1=C(OC)C(=O)C(Nc2ccccc2OCC)=C(OC)C1=O`, for which the T/C under setting [10] is 100 % of control; the T/C (dose: 100.0 mg/kg/injection, schedule: Q04DX003 (ip), vehicle: Klucel (hydroxypropylcellulose) (HPC)) was 91 % of control; the T/C under setting [11] is 95 % of control; the T/C (dose: 200.0 mg/kg/injection, schedule: Q04DX003 (ip), vehicle: Klucel (hydroxypropylcellulose) (HPC)) was 91 % of control and 100 % of control; the T/C under setting [12] is 100 % of control; the T/C (dose: 400.0 mg/kg/injection, schedule: Q04DX003 (ip), vehicle: Klucel (hydroxypropylcellulose) (HPC)) is 86 % of control.

For `COC(C)C(Br)C(=O)O` (stereo not given), the T/C was 88 % of control under setting [13]; 100 % of control under setting [8]; 92 % of control (dose: 200.0 mg/kg/injection, schedule: Q01DX009 (ip), vehicle: saline); 91 % of control (dose: 200.0 mg/kg/injection, schedule: Q04DX003 (ip), vehicle: saline); 91 % of control (dose: 400.0 mg/kg/injection, schedule: Q04DX003 (ip), vehicle: saline).

As to `COc1ccc(C[C@H](N)C(=O)NC2C(CO)OC(n3cnc4c(N(C)C)ncnc43)C2O)cc1` (stereo not given in full), the T/C by setting is: under setting [6], 98 % of control; under setting [7], 109 % of control; under setting [13], 100 % of control; under setting [8], 105 % of control.

For `N=C(N)SCc1ccccc1`, the T/C under setting [3] was 98 % of control.

With `c1ccc(Cn2ccnc2)cc1`, the T/C is 87 % of control (dose: 3.12 mg/kg/injection, schedule: Q01DX009 (ip), vehicle: water); 92 % of control (dose: 6.25 mg/kg/injection, schedule: Q01DX009 (ip), vehicle: water); 87 % of control (dose: 12.5 mg/kg/injection, schedule: Q01DX009 (ip), vehicle: water); 99 % of control (dose: 25.0 mg/kg/injection, schedule: Q01DX009 (ip), vehicle: water); 100 % of control (dose: 50.0 mg/kg/injection, schedule: Q01DX009 (ip), vehicle: water); 86 % of control (dose: 100.0 mg/kg/injection, schedule: Q01DX009 (ip), vehicle: water).

As for `CN(C)C1C(=O)C(C(N)=O)=C(O)C2(O)C(=O)C3=C(O)c4c(O)cccc4C(C)(O)C3CC12.O.O.O.[Al]` (stereo not given), the T/C reads like this: under setting [10], 101 % of control; under setting [11], 92 % of control; under setting [12], 121 % of control.

Take `CN(C)c1ccc2cc3ccc(N(C)C)cc3nc2c1`: the T/C (dose: 3.12 mg/kg/injection, schedule: Q04DX003 (ip), vehicle: water) is 93 % of control; the T/C (dose: 6.25 mg/kg/injection, schedule: Q04DX003 (ip), vehicle: water) was 106 % of control; the T/C (dose: 12.5 mg/kg/injection, schedule: Q04DX003 (ip), vehicle: water) is 99 % of control; the T/C (dose: 25.0 mg/kg/injection, schedule: Q04DX003 (ip), vehicle: water) is 109 % of control; the T/C (dose: 50.0 mg/kg/injection, schedule: Q04DX003 (ip), vehicle: water) was 115 % of control.

As to `Cc1cc[n+]2cc3c(ccc4ccccc43)c(C)c2c1`, the T/C was 110 % of control (dose: 0.7 mg/kg/injection, schedule: Q01DX010 (ip), vehicle: carboxymethylcellulose (CMC)); 100 % of control (dose: 1.5 mg/kg/injection, schedule: Q01DX010 (ip), vehicle: carboxymethylcellulose (CMC)); 110 % of control (dose: 3.0 mg/kg/injection, schedule: Q01DX010 (ip), vehicle: carboxymethylcellulose (CMC)); 115 % of control (dose: 6.0 mg/kg/injection, schedule: Q01DX010 (ip), vehicle: carboxymethylcellulose (CMC)); 110 % of control (dose: 12.5 mg/kg/injection, schedule: Q01DX010 (ip), vehicle: carboxymethylcellulose (CMC)); 110 % of control (dose: 25.0 mg/kg/injection, schedule: Q01DX010 (ip), vehicle: carboxymethylcellulose (CMC)).

Take `C=CCC1CCSC1=O` (stereo not given): the T/C was 100 % of control and 115 % of control (dose: 25.0 mg/kg/injection, schedule: Q04DX003 (ip), vehicle: saline with Tween-80); 103 % of control and 106 % of control (dose: 50.0 mg/kg/injection, schedule: Q04DX003 (ip), vehicle: saline with Tween-80); 101 % of control and 103 % of control and 119 % of control under setting [9]; 108 % of control (dose: 200.0 mg/kg/injection, schedule: Q04DX003 (ip), vehicle: saline with Tween-80).

Regarding `CC(=O)NC1=C(N2CC2)C(=O)C(NC(C)=O)=C(N2CC2)C1=O`, the T/C is, setting by setting: (dose: 0.12 mg/kg/injection, schedule: Q01DX009 (ip), vehicle: saline) 155 % of control; (dose: 0.25 mg/kg/injection, schedule: Q01DX009 (ip), vehicle: saline) 166 % of control and 195 % of control; (dose: 0.5 mg/kg/injection, schedule: Q01DX009 (ip), vehicle: saline) 270 % of control and 214 % of control; (dose: 1.0 mg/kg/injection, schedule: Q01DX009 (ip), vehicle: saline) 285 % of control and 190 % of control; (dose: 2.0 mg/kg/injection, schedule: Q01DX009 (ip), vehicle: saline) 109 % of control.
